Laboratory results as given in ChEMBL document CHEMBL4346730 (Bioorg Med Chem, 2019).
Values after ≈ are worked out from the molar mass of the structure shown.

Legend:
[1] = Inhibition of bovine corpus striatum PDE10A using [3H]cAMP or [3H]cGMP as substrate preincubated for 5 mins followed by substrate addition and measured after 30 mins by liquid scintillation counting method; design: species or system Bos taurus
[2] = Solubility in artificial interstitial fluid at pH 5 by HPLC analysis; type: physicochemical
hERG (KCNH2) = hERG (KCNH2) (Homo sapiens, UniProt Q12809); assay: Inhibition of human ERG at 1 uM relative to control
Sequence of hERG (KCNH2) (Q12809 whole entry, the tested form may be a part): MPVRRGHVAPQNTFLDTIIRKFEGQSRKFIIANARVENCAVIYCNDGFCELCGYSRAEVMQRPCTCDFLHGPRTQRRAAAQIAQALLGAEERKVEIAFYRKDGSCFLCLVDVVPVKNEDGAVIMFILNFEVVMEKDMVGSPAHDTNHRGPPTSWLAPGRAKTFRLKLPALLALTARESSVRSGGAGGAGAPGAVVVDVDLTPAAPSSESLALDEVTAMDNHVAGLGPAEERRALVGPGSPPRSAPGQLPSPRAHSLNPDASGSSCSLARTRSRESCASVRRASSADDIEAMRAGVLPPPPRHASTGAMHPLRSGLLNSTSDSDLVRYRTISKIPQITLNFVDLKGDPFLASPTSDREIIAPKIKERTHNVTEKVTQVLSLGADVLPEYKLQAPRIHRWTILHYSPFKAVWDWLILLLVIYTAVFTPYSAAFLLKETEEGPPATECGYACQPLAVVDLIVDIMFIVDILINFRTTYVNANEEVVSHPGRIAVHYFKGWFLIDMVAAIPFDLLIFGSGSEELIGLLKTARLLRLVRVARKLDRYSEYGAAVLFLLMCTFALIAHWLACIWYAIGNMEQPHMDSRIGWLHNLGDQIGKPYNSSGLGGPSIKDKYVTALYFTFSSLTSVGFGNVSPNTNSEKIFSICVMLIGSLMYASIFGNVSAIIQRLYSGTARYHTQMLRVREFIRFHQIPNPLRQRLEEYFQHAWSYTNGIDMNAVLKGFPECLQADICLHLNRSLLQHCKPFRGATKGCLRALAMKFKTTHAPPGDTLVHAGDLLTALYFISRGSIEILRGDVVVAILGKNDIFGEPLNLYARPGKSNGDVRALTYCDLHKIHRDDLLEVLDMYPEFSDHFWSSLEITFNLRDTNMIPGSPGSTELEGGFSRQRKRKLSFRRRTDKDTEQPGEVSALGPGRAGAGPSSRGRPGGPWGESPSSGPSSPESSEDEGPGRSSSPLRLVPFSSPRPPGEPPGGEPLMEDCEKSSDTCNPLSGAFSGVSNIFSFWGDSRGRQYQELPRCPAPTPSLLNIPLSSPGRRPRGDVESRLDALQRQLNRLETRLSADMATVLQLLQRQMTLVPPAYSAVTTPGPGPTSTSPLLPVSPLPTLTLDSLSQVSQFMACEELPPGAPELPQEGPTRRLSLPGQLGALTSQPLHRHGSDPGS

[3] = molecular target: cAMP and cAMP-inhibited cGMP 3',5'-cyclic phosphodiesterase 10A (Homo sapiens, UniProt Q9Y233); assay: Inhibition of human N-terminal FLAG-tagged PDE10A (1 to 90 residues) expressed in using African green monkey COS7 cells using [3H]cAMP or [3H]cGMP as substrate preincubated for 5 mins followed by substrate addition and measured after 30 mins by liquid scintillation counting method
Sequence of cAMP and cAMP-inhibited cGMP 3',5'-cyclic phosphodiesterase 10A (Q9Y233 whole entry, the tested form may be a part): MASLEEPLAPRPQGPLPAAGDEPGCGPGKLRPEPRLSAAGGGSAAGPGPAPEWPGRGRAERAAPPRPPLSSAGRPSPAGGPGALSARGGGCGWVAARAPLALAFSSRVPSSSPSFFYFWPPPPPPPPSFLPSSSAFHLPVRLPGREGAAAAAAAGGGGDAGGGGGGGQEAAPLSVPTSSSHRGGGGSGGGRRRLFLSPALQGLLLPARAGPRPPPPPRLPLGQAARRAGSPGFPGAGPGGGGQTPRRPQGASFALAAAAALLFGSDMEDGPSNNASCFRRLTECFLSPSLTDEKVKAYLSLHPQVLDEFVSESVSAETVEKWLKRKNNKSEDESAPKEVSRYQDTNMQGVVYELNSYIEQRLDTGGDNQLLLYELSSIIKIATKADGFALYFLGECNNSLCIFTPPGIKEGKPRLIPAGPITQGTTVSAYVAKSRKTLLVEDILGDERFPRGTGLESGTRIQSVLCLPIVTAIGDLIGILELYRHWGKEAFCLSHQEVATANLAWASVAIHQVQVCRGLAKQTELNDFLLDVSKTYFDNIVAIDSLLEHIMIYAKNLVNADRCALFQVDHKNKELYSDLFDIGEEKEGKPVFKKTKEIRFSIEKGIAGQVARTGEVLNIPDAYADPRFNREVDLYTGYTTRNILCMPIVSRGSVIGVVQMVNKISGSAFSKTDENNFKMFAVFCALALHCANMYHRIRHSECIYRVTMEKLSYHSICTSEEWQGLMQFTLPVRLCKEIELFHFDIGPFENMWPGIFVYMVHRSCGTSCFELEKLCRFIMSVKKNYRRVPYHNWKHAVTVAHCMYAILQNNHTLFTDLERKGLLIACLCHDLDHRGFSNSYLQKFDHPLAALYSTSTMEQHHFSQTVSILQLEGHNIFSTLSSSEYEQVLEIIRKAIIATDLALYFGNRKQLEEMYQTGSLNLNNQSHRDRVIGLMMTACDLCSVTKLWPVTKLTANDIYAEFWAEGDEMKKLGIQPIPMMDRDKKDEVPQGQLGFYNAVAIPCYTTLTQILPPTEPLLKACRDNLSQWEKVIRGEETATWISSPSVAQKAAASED

[4] = Chromatographic hydrophobicity index, log D of the compound at pH 7.4 by reverse-phase HPLC analysis; type: physicochemical; settings: buffer
Phosphodiesterase 4 = Phosphodiesterase 4 (Homo sapiens, UniProt P27815+Q08499+Q07343+Q08493); assay: Inhibition of PDE4 (unknown origin); type: protein assay
[5] = molecular target: cGMP-specific 3',5'-cyclic phosphodiesterase (Homo sapiens, UniProt O76074); assay: Inhibition of PDE5A (unknown origin)
Phosphodiesterase 6 = assay: Inhibition of PDE6 (unknown origin); type: protein assay, Homo sapiens
[6] = Oral bioavailability in Wistar rat at 3 mg/kg; type: ADME, organism-based; settings: in vivo
[7] = Unbound brain-to-plasma concentration ratio in Wistar rat at 3 mg/kg, po; type: ADME, organism-based
[8] = Half life in Wistar rat at 0.3 mg/kg, iv; type: ADME, organism-based; settings: in vivo
Rattus norvegicus = assay: Antipsychotic activity in po dosed Wistar rat assessed as inhibition of electric stimulation-induced conditioned avoidance responses measured up to 6 days; type: functional; settings: 144 h, read-out: ID50 (the source's name)
[9] = Clearance in Wistar rat at 0.3 mg/kg, iv; settings: in vivo
[10] = Volume of distribution at steady state in Wistar rat at 0.3 mg/kg, iv; settings: in vivo
[11] = Intrinsic clearance in human liver microsomes; type: ADME, Microsome; settings: read-out: CLH
[12] = Ratio of IC50 for PDE1 (unknown origin) to IC50 for bovine corpus striatum PDE10A
[13] = Ratio of IC50 for PDE4 (unknown origin) to IC50 for bovine corpus striatum PDE10A
[14] = Ratio of IC50 for PDE2A (unknown origin) to IC50 for bovine corpus striatum PDE10A
[15] = Ratio of IC50 for PDE3A (unknown origin) to IC50 for bovine corpus striatum PDE10A
[16] = Ratio of IC50 for PDE5A (unknown origin) to IC50 for bovine corpus striatum PDE10A
[17] = Ratio of IC50 for PDE6 (unknown origin) to IC50 for bovine corpus striatum PDE10A
[18] = Ratio of IC50 for PDE7B (unknown origin) to IC50 for bovine corpus striatum PDE10A
[19] = Ratio of IC50 for PDE8A (unknown origin) to IC50 for bovine corpus striatum PDE10A
[20] = Ratio of IC50 for PDE9A (unknown origin) to IC50 for bovine corpus striatum PDE10A
[21] = Ratio of IC50 for PDE11A (unknown origin) to IC50 for bovine corpus striatum PDE10A

In the case of `Cc1nc2ccccc2nc1-c1cn2c(NC3CCOCC3)cc(N3CCCC3)nc2n1`, the IC50 [1] is reported as 71 nM.
In the case of `Cc1nc2ccc(F)cc2nc1-c1cc2nc(N3CC[C@@H](F)C3)cc(NCC(C)(C)O)n2n1.Cl`, the IC50 [1] is reported as 0.09 nM, the solubility [2] is reported as 118 µg/mL and the inhibition at 1 µM (hERG (KCNH2)) is reported as 23%. For the same molecule, the IC50 [3] was 0.062 nM, the CHI [4] was 2.79 and the IC50 (Phosphodiesterase 4) was 289 nM. It also gave an IC50 [5] of 437 nM, an IC50 (Phosphodiesterase 6) of 561 nM and a bioavailability [6] of 43.7%. For the same molecule, the “K(p,uu,brain)” value ([7]; brain) was 0.5, the half-life [8] was 3.09 h and the ED50 (Rattus norvegicus) was 0.32 mg/kg. For the same molecule, the CL [9] was 8.77 mL/min/kg and the Vdss [10] was 2.307 L/kg.
With `Cc1ccc2nc(C)c(-c3cc4nc(N5CCCC5)cc(NC5CCOCC5)n4n3)nc2c1.Cl` the IC50 [1] was 0.09 nM, the solubility [2] was over 1000 µg/mL and the inhibition at 1 µM (hERG (KCNH2)) was 64%. It also gave a CHI [4] of 3.4.
For `Cc1nc2ccc(F)cc2nc1-c1cc2nc(N3CCCC3)cc(N[C@H]3CC[C@](C)(O)CC3)n2n1.Cl`, the IC50 [1] was 0.0088 nM, the solubility [2] was 15 µg/mL and the inhibition at 1 µM (hERG (KCNH2)) was 12%. For the same molecule, the CHI [4] was 3.23.
`Cc1nc2ccccc2nc1-c1nc2nc(N3CCCC3)cc(NC3CCOCC3)n2n1` showed an IC50 [1] of 6 nM.
In the case of `Cc1nc2c(C)cccc2nc1-c1cc2nc(N3CCCC3)cc(NC3CCOCC3)n2n1.Cl`, the IC50 [1] is reported as 0.78 nM, the solubility [2] is reported as 32 µg/mL and the inhibition at 1 µM (hERG (KCNH2)) is reported as 94%.
For `CO[C@H]1CC[C@H](Nc2cc(N3CCCC3)nc3cc(-c4nc5cc(C)ccc5nc4C)nn23)CC1.Cl`, the IC50 [1] was 0.08 nM, the solubility [2] was 5.1 µg/mL and the inhibition at 1 µM (hERG (KCNH2)) was 40%. It also gave a CHI [4] of 4.1.
For `Cc1nc2ccccc2nc1-c1cc2nc(N3CCCC3)cc(NC3CCOCC3)n2n1`, the IC50 [1] was 0.15 nM, the solubility [2] was 8.1 µg/mL (≈ 18.9 µM) and the inhibition at 1 µM (hERG (KCNH2)) was 63%.
Work on `Cc1nc2ccccc2nc1-c1cc2nc(N3CC[C@@H](F)C3)cc(N(C)C3CCOCC3)n2n1.Cl` yielded a solubility [2] of 4.8 µg/mL, an IC50 [3] of 0.061 nM and a bioavailability [6] of 19.2%. For the same molecule, the Kp uu ([7]; Wistar, brain and plasma, read-out: K(p,uu,brain)) was 0.61, the half-life [8] was 3.2 h and the microsomal CLint [11] was 127 µL/min/mg. For the same molecule, the Ratio IC50 [12] was over 1000, the Ratio IC50 [13] was over 1000 and the Ratio IC50 [14] was over 1000. For the same molecule, the Ratio IC50 [15] was over 1000, the Ratio IC50 [16] was over 1000 and the Ratio IC50 [17] was over 1000. For the same molecule, the Ratio IC50 [18] was over 1000, the Ratio IC50 [19] was over 1000 and the Ratio IC50 [20] was over 1000. For the same molecule, the Ratio IC50 [21] was over 1000.
In the case of `Cc1nc2ccc(F)cc2nc1-c1cc2nc(N3CCCC3)cc(NCC(C)(C)O)n2n1.Cl`, the IC50 [1] is reported as 0.0081 nM, the solubility [2] is reported as 8.7 µg/mL and the inhibition at 1 µM (hERG (KCNH2)) is reported as 50%. It also gave a CHI [4] of 3.07.
Molecule `Cc1ccc2nc(-c3cc4nc(N5CCCC5)cc(NC5CCOCC5)n4n3)c(C)nc2c1.Cl` has an IC50 [1] of 0.46 nM, a solubility [2] of 17 µg/mL and an inhibition at 1 µM (hERG (KCNH2)) of 80%.
`Cc1ccc2nc(C)c(-c3cc4nc(N5CCCC5)cc(N[C@H]5CC[C@H](O)CC5)n4n3)nc2c1.Cl` showed an IC50 [1] of 0.033 nM and a solubility [2] of 19 µg/mL.
Molecule `Cc1nc2ccc(F)cc2nc1/C=C/c1nc(NC2CCOCC2)cc(N2CCCC2)n1` has an IC50 [1] of 0.14 nM.
In the case of `Cc1ccc2nc(C)c(-c3cc4nc(N5CCCC5)cc(N[C@H]5CC[C@](C)(O)CC5)n4n3)nc2c1.Cl`, the IC50 [1] is reported as 0.036 nM, the solubility [2] is reported as 62 µg/mL and the inhibition at 1 µM (hERG (KCNH2)) is reported as 29%. It also gave a CHI [4] of 3.29.
Work on `Cc1nc2ccccc2nc1-c1cn2nc(N3CCCC3)cc(NC3CCOCC3)c2n1` yielded an IC50 [1] of 0.41 nM.
Molecule `Cc1nc2cccc(C)c2nc1-c1cc2nc(N3CCCC3)cc(NC3CCOCC3)n2n1.Cl` has an IC50 [1] of 0.02 nM, a solubility [2] of 121 µg/mL and an inhibition at 1 µM (hERG (KCNH2)) of 99%.
